# Reference: ChEMBL document CHEMBL4118119, “Development of novel pyridazinone-based adenosine receptor ligands” (Bioorg Med Chem Lett, 2018)
# Experiments:
# Adenosine receptor A1 = biological target: T1, Adenosine receptor A1 (Homo sapiens, UniProt P30542); experiment: Displacement of [3H]DPCPX from recombinant human A1 receptor expressed in CHO cell membranes measured after 90 mins by scintillation counting method
# T1 sequence (P30542 whole entry): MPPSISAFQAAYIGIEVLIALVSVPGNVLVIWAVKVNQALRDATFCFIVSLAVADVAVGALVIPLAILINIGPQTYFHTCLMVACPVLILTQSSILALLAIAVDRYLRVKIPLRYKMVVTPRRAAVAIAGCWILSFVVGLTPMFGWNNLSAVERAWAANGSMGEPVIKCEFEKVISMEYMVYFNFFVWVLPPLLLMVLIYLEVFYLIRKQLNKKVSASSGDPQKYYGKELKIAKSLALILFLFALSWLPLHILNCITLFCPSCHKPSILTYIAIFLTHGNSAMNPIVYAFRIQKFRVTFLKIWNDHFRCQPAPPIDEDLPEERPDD
# Adenosine receptor A2a [1] = biological target: T2, Adenosine receptor A2a (Homo sapiens, UniProt P29274); experiment: Displacement of [3H]-ZM241385 from recombinant human A2A receptor expressed in CHO cell membranes at 1 uM measured after 60 mins by scintillation counting method relative to control
# T2 sequence (P29274 whole entry): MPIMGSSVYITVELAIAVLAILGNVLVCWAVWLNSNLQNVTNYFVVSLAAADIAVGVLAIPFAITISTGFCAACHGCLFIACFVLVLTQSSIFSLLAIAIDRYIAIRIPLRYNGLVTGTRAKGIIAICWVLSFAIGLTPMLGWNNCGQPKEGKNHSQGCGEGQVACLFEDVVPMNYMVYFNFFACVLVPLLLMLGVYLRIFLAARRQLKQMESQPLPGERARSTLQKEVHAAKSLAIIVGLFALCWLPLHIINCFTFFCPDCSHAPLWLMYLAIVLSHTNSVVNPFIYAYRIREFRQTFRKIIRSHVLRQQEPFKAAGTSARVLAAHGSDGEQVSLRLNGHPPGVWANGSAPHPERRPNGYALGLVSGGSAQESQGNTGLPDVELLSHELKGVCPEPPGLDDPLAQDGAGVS
# [2] = biological target: T3, Adenosine receptor A3 (Homo sapiens) (UniProt P0DMS8); experiment: Displacement of [125I]-ABMECA from recombinant human A3 receptor expressed in CHO cell membranes at 1 uM measured after 120 mins by scintillation counting method relative to control
# T3 sequence (whole entry): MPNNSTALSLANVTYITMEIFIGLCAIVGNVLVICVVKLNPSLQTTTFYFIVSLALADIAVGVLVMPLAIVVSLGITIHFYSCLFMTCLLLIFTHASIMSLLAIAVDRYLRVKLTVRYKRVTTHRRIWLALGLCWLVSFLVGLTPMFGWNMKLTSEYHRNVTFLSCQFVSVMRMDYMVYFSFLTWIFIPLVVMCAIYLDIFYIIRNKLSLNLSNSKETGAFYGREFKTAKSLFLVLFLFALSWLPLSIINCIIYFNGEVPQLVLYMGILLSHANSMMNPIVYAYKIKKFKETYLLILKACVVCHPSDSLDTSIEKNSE
# [3] = biological target: T4, Adenosine receptor A2b (Homo sapiens) (UniProt P29275); experiment: Antagonist activity at recombinant human A2B receptor expressed in CHO cells assessed as inhibition of NECA-stimulated cAMP production at 0.001 to 1 uM by Alpha screen assay relative to control; format: functional, cell-based
# T4 sequence (whole entry): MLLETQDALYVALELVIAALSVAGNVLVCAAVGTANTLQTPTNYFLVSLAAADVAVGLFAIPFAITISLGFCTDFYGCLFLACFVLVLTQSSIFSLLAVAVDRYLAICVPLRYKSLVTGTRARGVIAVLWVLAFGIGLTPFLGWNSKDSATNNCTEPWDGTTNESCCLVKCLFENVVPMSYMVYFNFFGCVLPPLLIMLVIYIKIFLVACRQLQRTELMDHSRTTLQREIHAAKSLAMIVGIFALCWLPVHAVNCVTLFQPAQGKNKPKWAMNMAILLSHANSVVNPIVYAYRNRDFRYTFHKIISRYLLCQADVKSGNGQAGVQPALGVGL
# Adenosine receptor A2a [4] = biological target: T2, Adenosine receptor A2a; experiment: Displacement of [3H]-ZM241385 from recombinant human A2A receptor expressed in CHO cell membranes measured after 60 mins by scintillation counting method
# [5] = biological target: T5, Adenosine receptor A1 (Homo sapiens) (UniProt P30542); experiment: Displacement of [3H]DPCPX from recombinant human A1 receptor expressed in CHO cell membranes at 1 uM measured after 90 mins by scintillation counting method relative to control
# T5 sequence (whole entry): T1 sequence (P30542 whole entry)
# Adenosine receptor A3 = biological target: T6, Adenosine receptor A3 (Homo sapiens, UniProt P0DMS8); experiment: Displacement of [125I]-ABMECA from recombinant human A3 receptor expressed in CHO cell membranes measured after 120 mins by scintillation counting method
# T6 sequence (P0DMS8 whole entry): T3 sequence (whole entry)
SMILES,Ki (Adenosine receptor A1),inhibition (Adenosine receptor A2a [1]),inhibition [2],inhibition [3],Ki (Adenosine receptor A2a [4]),inhibition [5],Ki (Adenosine receptor A3)
Nn1nc(-c2cccs2)c2sccc2c1=O,3.54 µM,1%,1%,1%,–,–,–
Nn1nc(-c2ccccc2)c2sccc2c1=O,–,12%,1%,1%,–,16%,–
CCc1nn(CC)c(=O)c2cc(-c3ccccc3)sc12,–,–,10%,1%,3.14 µM,4%,–
Nn1nc(-c2ccccn2)c2sccc2c1=O,3.72 µM,1%,1%,1%,–,–,–
Nn1nc(-c2nccs2)c2sccc2c1=O,2.87 µM,15%,5%,1%,–,–,–
CCc1nn(CC)c(=O)c2ccsc12,–,7%,14%,1%,–,3%,–

# Next, values leading:
Ki (Adenosine receptor A1),inhibition (Adenosine receptor A2a [1]),inhibition [2],inhibition [3],Ki (Adenosine receptor A2a [4]),inhibition [5],Ki (Adenosine receptor A3),SMILES
0.782 µM,–,1%,1%,2.87 µM,–,–,CCn1nc(-c2ccccn2)c2sccc2c1=O
0.113 µM,–,–,1%,2.49 µM,–,2.93 µM,CCn1nc(-c2nccs2)c2sccc2c1=O
0.912 µM,2%,2%,1%,–,–,–,CC(C)n1nc(-c2ccccn2)c2sccc2c1=O
2.67 µM,17%,–,1%,–,–,2.59 µM,CCn1nc(-c2ccccc2)c2sccc2c1=O
0.724 µM,1%,1%,1%,–,–,–,CCn1nc(-c2cccs2)c2sccc2c1=O
1.15 µM,–,1%,1%,3.39 µM,–,–,O=c1[nH]nc(-c2nccs2)c2sccc12
